# Measurements taken from ChEMBL document CHEMBL5518230, “Identification of a Novel Selective CDK9 Inhibitor for the Treatment of CRC: Design, Synthesis, and Biological Activity Evaluation” (J Med Chem, 2024).
# Calls of active or inactive are those of the source. No cut-off for these calls is given here.
# Assays:
# [1] = MRT (0 to t) in Sprague-Dawley rat at 2 mg/kg,iv administration measured for 0.25 to 24 hrs by LC-MS/MS analysis; format: ADME, organism-based; settings: in vivo, time 0.25-24 hrs
# [2] = MRT (0 to infinity) in Sprague-Dawley rat at 2 mg/kg,iv administration measured for 0.25 to 24 hrs by LC-MS/MS analysis; format: ADME, organism-based; settings: in vivo, time 0.25-24 hrs
# HT-29 = experiment: Growth inhibition of human HT-29 cells incubated for 48 hrs by CCK-8 assay; format: functional
# [3] = biological target: Cyclin-dependent kinase 8 (Homo sapiens, UniProt P49336); experiment: Inhibition of CDK8 (unknown origin)
# [4] = Half life in human liver microsomes at 100 uM measured upto 60 mins in presence of NADPH by LC-MS/MS analysis; format: ADME, Microsome
# CYP2C9 = CYP2C9 (Homo sapiens, UniProt P11712); experiment: Inhibition of CYP2C9 in human liver microsomes using sulfaphenazole as […] at 10 uM preincubated for 10 mins followed by NADPH addition measured after 15 mins by LC-MS/MS analysis relative to control; format: ADME, Microsome; settings: probe sulfaphenazole, time 25 min
# CYP2C19 = CYP2C19 (Homo sapiens, UniProt P33261); experiment: Inhibition of CYP2C19 in human liver microsomes using benzylnirvanol as […] at 10 uM preincubated for 10 mins followed by NADPH addition measured after 15 mins by LC-MS/MS analysis relative to control; format: ADME, Microsome; settings: probe benzylnirvanol, time 25 min
# [5] = Growth inhibition of human CCC-HIE-2 cells incubated for 48 hrs by CCK-8 assay; format: toxicity, cell-based
# [6] = Selectivity index, ratio of GI50 for growth inhibition of human CCC-HIE-2 cells to GI50 for growth inhibition of human HCT-116 cells
# [7] = C0 in Sprague-Dawley rat at 2 mg/kg,iv administration measured for 0.25 to 24 hrs by LC-MS/MS analysis; format: ADME, organism-based; settings: in vivo, time 0.25-24 hrs
# [8] = Clearance in Sprague-Dawley rat at 2 mg/kg,iv administration measured for 0.25 to 24 hrs by LC-MS/MS analysis; format: ADME, organism-based; settings: in vivo, time 0.25-24 hrs
# [9] = Half life in Sprague-Dawley rat at 10 mg/kg,po administration measured for 0.25 to 24 hrs by LC-MS/MS analysis; format: ADME, organism-based; settings: in vivo, time 0.25-24 hrs
# [10] = AUC (0 to t) in Sprague-Dawley rat at 10 mg/kg,po administration measured for 0.25 to 24 hrs by LC-MS/MS analysis; format: ADME, organism-based; settings: in vivo, time 0.25-24 hrs
# [11] = MRT (0 to t) in Sprague-Dawley rat at 10 mg/kg,po administration measured for 0.25 to 24 hrs by LC-MS/MS analysis; format: ADME, organism-based; settings: in vivo, time 0.25-24 hrs
# [12] = MRT (0 to infinity) in Sprague-Dawley rat at 10 mg/kg,po administration measured for 0.25 to 24 hrs by LC-MS/MS analysis; format: ADME, organism-based; settings: in vivo, time 0.25-24 hrs
# [13] = biological target: Serine/threonine-protein kinase PAK 4 (Homo sapiens) (UniProt O96013); experiment: Inhibition of human PAK4 at 100 nM by kinase profiling assay relative to control
# [14] = biological target: Activin receptor type-1B (Homo sapiens) (UniProt P36896); experiment: Inhibition of human ALK4 at 100 nM by kinase profiling assay relative to control
# [15] = biological target: Serine/threonine-protein kinase SIK2 (Homo sapiens) (UniProt Q9H0K1); experiment: Inhibition of human QIK at 100 nM by kinase profiling assay relative to control
# [16] = biological target: cAMP-dependent protein kinase catalytic subunit alpha (Homo sapiens) (UniProt P17612); experiment: Inhibition of human PKACalpha at 100 nM by kinase profiling assay relative to control
# [17] = biological target: Rho-associated protein kinase 1 (Homo sapiens) (UniProt Q13464); experiment: Inhibition of human ROCK1 at 100 nM by kinase profiling assay relative to control
# [18] = biological target: Protein kinase C alpha type (Homo sapiens) (UniProt P17252); experiment: Inhibition of human PKCalpha at 100 nM by kinase profiling assay relative to control
# [19] = biological target: Mitogen-activated protein kinase kinase kinase kinase 4 (Homo sapiens) (UniProt O95819); experiment: Inhibition of human HGK at 100 nM by kinase profiling assay relative to control
# HCT-116 [20] = experiment: Inhibition of colony formation in human HCT-116 cells assessed as reduction in colony number incubated for 14 days by crystal violet staining assay; format: functional, cell-based; settings: time 14.0 day
# HCT-116 [21] = experiment: Induction of apoptosis in human HCT-116 cells assessed as increase in red fluorescence emission by TUNEL staining fluorescence microscopic analysis; format: functional, cell-based
# HCT-116 [22] = experiment: Induction of apoptosis in human HCT-116 cells assessed as effect on RNA polymerase II expression at 25 to 400 nM incubated for 48 hrs by Western blotting analysis; format: functional, cell-based; settings: dose 25-400 nM
# HCT-116 [23] = experiment: Induction of apoptosis in human HCT-116 cells assessed as downregulation of XIAP mRNA expression at 25 to 400 nM incubated for 48 hrs by qRT-PCR analysis; format: functional, cell-based; settings: dose 25-400 nM
# HCT-116 [24] = experiment: Induction of apoptosis in human HCT-116 cells assessed as downregulation of PARP expression at 25 to 400 nM incubated for 48 hrs by Western blotting analysis; format: functional, cell-based; settings: dose 25-400 nM
# HCT-116 [25] = experiment: Antitumor activity against human HCT-116 cells xenografted in BALB/c mouse assessed as downregulation of RNA polymerase II phosphorylation at 25 mg/kg,po administrated once daily for 3 weeks by Western blotting analysis; format: functional, organism-based
# HCT-116 [26] = experiment: Antitumor activity against human HCT-116 cells xenografted in BALB/c mouse assessed as upregulation of PARP expression at 50 mg/kg,po administrated once daily for 3 weeks by Western blotting analysis; format: functional, organism-based
# [27] = Toxicity in BALB/c mouse xenografted with human HCT-116 cells assessed as heart morphological change at 50 mg/kg,po administrated once daily for 3 weeks by hematoxylin and eosin staining based microscopic analysis; format: organism-based; settings: in vivo, 504 h
# [28] = Toxicity in BALB/c mouse xenografted with human HCT-116 cells assessed as liver morphological change at 25 mg/kg,po administrated once daily for 3 weeks by hematoxylin and eosin staining based microscopic analysis; format: organism-based; settings: in vivo, 504 h
# [29] = Toxicity in BALB/c mouse xenografted with human HCT-116 cells assessed as liver morphological change at 50 mg/kg,po administrated once daily for 3 weeks by hematoxylin and eosin staining based microscopic analysis; format: organism-based; settings: in vivo, 504 h
# [30] = Toxicity in BALB/c mouse xenografted with human HCT-116 cells assessed as spleen morphological change at 25 mg/kg,po administrated once daily for 3 weeks by hematoxylin and eosin staining based microscopic analysis; format: organism-based; settings: in vivo, 504 h
# [31] = Toxicity in BALB/c mouse xenografted with human HCT-116 cells assessed as spleen morphological change at 50 mg/kg,po administrated once daily for 3 weeks by hematoxylin and eosin staining based microscopic analysis; format: organism-based; settings: in vivo, 504 h
# [32] = Toxicity in BALB/c mouse xenografted with human HCT-116 cells assessed as kidney morphological change at 25 mg/kg,po administrated once daily for 3 weeks by hematoxylin and eosin staining based microscopic analysis; format: organism-based; settings: in vivo, 504 h
# [33] = Toxicity in BALB/c mouse xenografted with human HCT-116 cells assessed as kidney morphological change at 50 mg/kg,po administrated once daily for 3 weeks by hematoxylin and eosin staining based microscopic analysis; format: organism-based; settings: in vivo, 504 h
# Sequence of CYP2C9 (P11712 whole entry): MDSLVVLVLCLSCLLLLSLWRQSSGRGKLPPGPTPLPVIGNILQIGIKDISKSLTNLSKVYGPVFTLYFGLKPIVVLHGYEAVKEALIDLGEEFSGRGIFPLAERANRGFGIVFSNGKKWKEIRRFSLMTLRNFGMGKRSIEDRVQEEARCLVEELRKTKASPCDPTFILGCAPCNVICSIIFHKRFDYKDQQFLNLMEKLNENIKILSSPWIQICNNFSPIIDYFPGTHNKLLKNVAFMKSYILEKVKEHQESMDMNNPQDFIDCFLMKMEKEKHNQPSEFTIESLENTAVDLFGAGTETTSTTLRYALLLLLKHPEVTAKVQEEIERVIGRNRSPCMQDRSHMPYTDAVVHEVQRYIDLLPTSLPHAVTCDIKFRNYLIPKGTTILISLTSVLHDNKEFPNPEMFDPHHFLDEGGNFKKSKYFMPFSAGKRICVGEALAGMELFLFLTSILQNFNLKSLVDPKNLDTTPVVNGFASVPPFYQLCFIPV
# Sequence of Mitogen-activated protein kinase kinase kinase kinase 4 (Homo sapiens) (O95819 2-1239 limits assumed): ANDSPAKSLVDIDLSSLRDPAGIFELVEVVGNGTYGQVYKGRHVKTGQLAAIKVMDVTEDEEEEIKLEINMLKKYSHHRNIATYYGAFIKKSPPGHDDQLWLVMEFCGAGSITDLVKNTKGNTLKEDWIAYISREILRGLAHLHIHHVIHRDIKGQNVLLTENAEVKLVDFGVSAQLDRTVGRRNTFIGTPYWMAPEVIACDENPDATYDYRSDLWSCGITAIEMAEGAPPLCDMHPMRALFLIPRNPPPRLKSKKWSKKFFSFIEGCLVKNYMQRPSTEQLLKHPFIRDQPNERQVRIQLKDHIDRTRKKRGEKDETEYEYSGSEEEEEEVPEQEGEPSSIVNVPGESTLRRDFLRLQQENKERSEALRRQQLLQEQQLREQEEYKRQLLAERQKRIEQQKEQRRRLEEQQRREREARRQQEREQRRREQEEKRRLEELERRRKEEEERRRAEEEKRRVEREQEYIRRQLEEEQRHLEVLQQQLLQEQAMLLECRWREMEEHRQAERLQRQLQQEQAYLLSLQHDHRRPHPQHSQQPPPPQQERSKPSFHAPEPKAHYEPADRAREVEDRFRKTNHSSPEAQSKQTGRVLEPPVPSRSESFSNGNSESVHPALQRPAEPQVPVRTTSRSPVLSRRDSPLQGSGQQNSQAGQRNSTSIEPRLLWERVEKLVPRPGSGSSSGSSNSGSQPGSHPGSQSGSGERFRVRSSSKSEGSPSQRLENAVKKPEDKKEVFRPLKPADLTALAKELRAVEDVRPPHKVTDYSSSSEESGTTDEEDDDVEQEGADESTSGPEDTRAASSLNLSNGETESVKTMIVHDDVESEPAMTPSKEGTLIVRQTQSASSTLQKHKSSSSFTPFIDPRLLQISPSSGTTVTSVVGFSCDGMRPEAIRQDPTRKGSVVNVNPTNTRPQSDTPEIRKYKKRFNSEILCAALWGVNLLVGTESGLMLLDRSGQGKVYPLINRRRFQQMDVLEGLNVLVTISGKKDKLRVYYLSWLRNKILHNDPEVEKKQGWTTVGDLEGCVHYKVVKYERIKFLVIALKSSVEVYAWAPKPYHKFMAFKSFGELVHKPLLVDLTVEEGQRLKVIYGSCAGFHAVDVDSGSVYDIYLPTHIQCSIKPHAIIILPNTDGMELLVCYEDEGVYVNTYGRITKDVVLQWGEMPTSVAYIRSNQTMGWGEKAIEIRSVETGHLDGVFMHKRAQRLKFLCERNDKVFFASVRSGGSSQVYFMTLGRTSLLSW
# Sequence of Serine/threonine-protein kinase PAK 4 (Homo sapiens) (O96013 whole entry, looked up): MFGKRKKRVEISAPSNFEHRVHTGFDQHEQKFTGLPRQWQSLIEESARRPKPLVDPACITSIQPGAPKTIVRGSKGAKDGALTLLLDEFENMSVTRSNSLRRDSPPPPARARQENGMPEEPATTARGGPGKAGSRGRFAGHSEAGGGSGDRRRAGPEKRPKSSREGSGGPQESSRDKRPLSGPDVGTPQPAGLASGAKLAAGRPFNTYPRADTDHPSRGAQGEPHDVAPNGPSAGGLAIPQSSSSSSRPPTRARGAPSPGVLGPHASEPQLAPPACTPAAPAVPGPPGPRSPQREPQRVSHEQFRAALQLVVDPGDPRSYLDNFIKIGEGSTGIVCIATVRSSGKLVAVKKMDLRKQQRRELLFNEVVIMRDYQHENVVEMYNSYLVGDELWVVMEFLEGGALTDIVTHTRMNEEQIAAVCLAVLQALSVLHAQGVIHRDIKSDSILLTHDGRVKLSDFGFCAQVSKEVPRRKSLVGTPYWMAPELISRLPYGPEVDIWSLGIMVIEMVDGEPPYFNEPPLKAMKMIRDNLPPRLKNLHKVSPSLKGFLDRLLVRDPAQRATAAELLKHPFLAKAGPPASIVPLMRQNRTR
# Sequence of Cyclin-dependent kinase 8 (P49336 whole entry): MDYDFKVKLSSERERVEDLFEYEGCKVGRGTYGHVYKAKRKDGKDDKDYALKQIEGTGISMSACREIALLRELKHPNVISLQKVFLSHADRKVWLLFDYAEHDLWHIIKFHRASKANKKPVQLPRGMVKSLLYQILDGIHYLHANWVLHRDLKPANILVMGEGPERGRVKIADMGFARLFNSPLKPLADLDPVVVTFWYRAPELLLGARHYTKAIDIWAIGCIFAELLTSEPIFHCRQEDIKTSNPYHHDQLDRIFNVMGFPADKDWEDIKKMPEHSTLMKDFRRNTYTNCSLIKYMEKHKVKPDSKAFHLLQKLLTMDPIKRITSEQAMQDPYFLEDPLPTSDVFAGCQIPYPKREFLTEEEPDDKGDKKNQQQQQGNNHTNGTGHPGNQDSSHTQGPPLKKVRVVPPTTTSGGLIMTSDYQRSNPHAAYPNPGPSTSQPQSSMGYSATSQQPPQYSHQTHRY
# Sequence of CYP2C19 (P33261 whole entry): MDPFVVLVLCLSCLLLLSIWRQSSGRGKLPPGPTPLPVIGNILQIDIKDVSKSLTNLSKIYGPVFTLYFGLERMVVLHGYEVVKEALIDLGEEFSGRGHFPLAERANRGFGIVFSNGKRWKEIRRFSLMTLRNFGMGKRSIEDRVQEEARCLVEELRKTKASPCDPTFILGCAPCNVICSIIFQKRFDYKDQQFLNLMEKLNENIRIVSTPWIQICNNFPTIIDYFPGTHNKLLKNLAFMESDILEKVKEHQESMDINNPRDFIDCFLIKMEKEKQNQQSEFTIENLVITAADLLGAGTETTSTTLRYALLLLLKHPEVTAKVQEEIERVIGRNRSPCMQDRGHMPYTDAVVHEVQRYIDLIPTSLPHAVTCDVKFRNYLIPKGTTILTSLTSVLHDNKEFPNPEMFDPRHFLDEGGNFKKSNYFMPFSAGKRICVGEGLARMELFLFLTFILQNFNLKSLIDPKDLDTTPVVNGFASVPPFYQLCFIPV
# Sequence of Serine/threonine-protein kinase SIK2 (Homo sapiens) (Q9H0K1 whole entry, looked up): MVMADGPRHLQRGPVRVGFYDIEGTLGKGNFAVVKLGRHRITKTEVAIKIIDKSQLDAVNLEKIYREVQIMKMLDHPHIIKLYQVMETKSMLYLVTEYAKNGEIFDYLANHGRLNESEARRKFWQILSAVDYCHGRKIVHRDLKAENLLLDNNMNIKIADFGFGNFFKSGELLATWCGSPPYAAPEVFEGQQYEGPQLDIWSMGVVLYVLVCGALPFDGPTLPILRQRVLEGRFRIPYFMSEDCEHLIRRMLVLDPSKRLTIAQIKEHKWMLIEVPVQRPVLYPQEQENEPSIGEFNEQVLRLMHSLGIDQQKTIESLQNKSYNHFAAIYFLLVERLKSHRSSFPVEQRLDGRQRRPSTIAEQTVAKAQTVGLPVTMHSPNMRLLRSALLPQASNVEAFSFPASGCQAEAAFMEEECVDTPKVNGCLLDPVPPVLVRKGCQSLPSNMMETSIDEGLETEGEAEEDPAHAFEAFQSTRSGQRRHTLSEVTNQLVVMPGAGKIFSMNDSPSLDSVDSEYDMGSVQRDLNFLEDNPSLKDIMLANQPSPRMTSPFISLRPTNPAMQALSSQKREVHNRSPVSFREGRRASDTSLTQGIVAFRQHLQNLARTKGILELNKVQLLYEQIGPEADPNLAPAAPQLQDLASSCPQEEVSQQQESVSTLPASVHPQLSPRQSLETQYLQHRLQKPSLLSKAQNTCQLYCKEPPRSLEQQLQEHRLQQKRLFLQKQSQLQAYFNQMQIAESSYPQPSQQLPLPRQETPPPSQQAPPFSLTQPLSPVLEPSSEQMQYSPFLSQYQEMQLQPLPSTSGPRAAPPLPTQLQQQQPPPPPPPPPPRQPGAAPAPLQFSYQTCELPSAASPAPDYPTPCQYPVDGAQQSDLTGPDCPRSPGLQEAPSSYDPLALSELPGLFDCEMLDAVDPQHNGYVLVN
smiles,measurement,setting,value
CC(C)n1nnc2ccc(-c3ccnc(Nc4cc(C(=O)N5CCCN(C)CC5)ccn4)c3)cc21,MRT last,[1],1.48 h
same,MRT inf,[2],1.77 h
same,GI50,HT-29,0.56 µM
same,IC50,[3],> 0.5 µM
same,half-life at 100 µM,[4],0.42 h
same,"inhibition at 0.25 h, 10 µM",CYP2C9,27.9%
same,"inhibition at 0.25 h, 10 µM",CYP2C19,24.5%
same,GI50 at 48 h,[5],9.51 µM
same,RatioGI50,[6],173.46
same,C0,[7],459 ng/mL
same,clearance,[8],89.8 mL/min/kg
same,half-life,[9],5.28 h
same,AUC(0-t),[10],168 ng·h/mL
same,MRT last,[11],4.62 h
same,MRT inf,[12],7.02 h
same,inhibition,[13],< 50%
same,inhibition,[14],< 50%
same,inhibition,[15],< 50%
same,inhibition,[16],< 50%
same,inhibition,[17],< 50%
same,inhibition,[18],< 50%
same,inhibition,[19],< 50%
same,inhibition,HCT-116 [20],Dose-Dependent Effect
same,Activity,HCT-116 [21],Dose-Dependent Effect
same,Activity,HCT-116 [22],inactive
same,Activity,HCT-116 [23],Active
same,Activity,HCT-116 [24],Active
same,Activity,HCT-116 [25],Active
same,Activity,HCT-116 [26],Active
same,Activity,[27],Non-Toxic
same,Activity,[28],Non-Toxic
same,Activity,[29],Non-Toxic
same,Activity,[30],Non-Toxic
same,Activity,[31],Non-Toxic
same,Activity,[32],Non-Toxic
same,Activity,[33],Non-Toxic
